Experimental data as given in patent US7943770B2, “Fused quinoline derivative and use thereof” (Takeda Pharmaceutical Company Limited, priority 2004, dated 2011).

Target: T1, hNK2 receptor (Homo sapiens, UniProt P21452)
T1 construct: host or cells: CHO cells
T1 sequence (P21452 1-398): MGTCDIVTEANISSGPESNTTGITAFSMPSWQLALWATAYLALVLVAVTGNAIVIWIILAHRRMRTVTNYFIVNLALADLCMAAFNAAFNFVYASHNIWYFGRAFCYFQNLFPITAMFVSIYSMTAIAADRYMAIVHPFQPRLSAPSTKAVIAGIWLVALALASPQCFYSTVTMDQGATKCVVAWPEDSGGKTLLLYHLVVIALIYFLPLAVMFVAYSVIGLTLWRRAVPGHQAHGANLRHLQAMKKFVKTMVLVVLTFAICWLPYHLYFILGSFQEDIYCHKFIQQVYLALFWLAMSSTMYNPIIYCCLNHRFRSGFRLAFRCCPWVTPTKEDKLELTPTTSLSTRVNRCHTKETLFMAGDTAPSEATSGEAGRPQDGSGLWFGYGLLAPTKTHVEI
Assay: Radio-ligand ([125I]-NKA) receptor binding inhibitory activity using membrane fraction of hNK2 receptor-expressing CHO cell
Conditions: membrane fraction of hNK2 receptor-expressing CHO cells, 25° C., 30 min
In short: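 Membranes from hNK2-expressing CHO cells (20 μg/mL suspension) incubated with test compound and [125I]-NKA ([…] solution as added) in Tris-HCl pH 7.4 with BSA, protease inhibitors, 3 mM MnCl2, 25 °C, 30 min. Bound radioactivity by GF/C filtration and scintillation; inhibition expressed relative to specific binding (total minus unlabeled-NKA non-specific).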

| SMILES | IC50 |
| --- | --- |
| O=C(N[C@@H]1CCCC[C@@H]1C(=O)N1CC[C@@H]2[C@H](c3ccccc3)Nc3ccccc3[C@@H]21)c1ccc2[nH]cnc2c1 [Example 133, N-((1R,2S)-2-{[(3aR,4R,9bR)-4-Phenyl-2,3,3a,4,5,9b-hexahydro-1H-pyrrolo[3,2-c]quinolin-1-yl]carbonyl}cyclohexyl)-1H-benzimidazole-5-carboxamide] | < 1 nM |
| N#Cc1ccc(C(=O)N[C@@H]2CCCC[C@@H]2C(=O)N2CC[C@@H]3[C@H](c4ncc[nH]4)Nc4ccccc4[C@@H]32)cc1 [Example 304, 4-cyano-N-((1R,2S)-2-{[(3aR,4R,9bR)-4-(1H-imidazol-2-yl)-2,3,3a,4,5,9b-hexahydro-1H-pyrrolo[3,2-c]quinolin-1-yl]carbonyl}cyclohexyl)benzamide] | < 1 nM |
| CCNC(=O)N[C@@H]1CCCC[C@@H]1C(=O)N1CC[C@@H]2[C@H](c3ccsc3)Nc3ccccc3[C@@H]21 [Example 187, N-Ethyl-N′-((1R,2S)-2-{[(3aR,4R,9bR)-4-(3-thienyl)-2,3,3a,4,5,9b-hexahydro-1H-pyrrolo[3,2-c]quinolin-1-yl]carbonyl}cyclohexyl)urea] | < 1 nM |
| O=C(/C=C/c1ncc[nH]1)N[C@@H]1CCCC[C@@H]1C(=O)N1CC[C@@H]2[C@H](c3ccccc3)Nc3ccccc3[C@@H]21 [Example 134, (2E)-3-(1H-Imidazol-2-yl)-N-((1R,2S)-2-{[(3aR,4R,9bR)-4-phenyl-2,3,3a,4,5,9b-hexahydro-1H-pyrrolo[3,2-c]quinolin-1-yl]carbonyl}cyclohexyl)acrylamide] | < 1 nM |
| CC(=O)N[C@@H]1CCCC[C@@H]1C(=O)N1CC[C@@H]2[C@H](c3ccccc3)Nc3ccccc3[C@@H]21 [Example 85, N-((1R,25)-2-{[(3aR,4R,9bR)-4-Phenyl-2,3,3a,4,5,9b-hexahydro-1H-pyrrolo[3,2-c]quinolin-1-yl]carbonyl}cyclohexyl)acetamide] | < 10 nM |
| COC[C@@H]1Nc2ccccc2[C@H]2[C@@H]1CCN2C(=O)[C@H]1CCCC[C@H]1NC(=O)c1ccc(F)c(F)c1 [Example 212, 3,4-Difluoro-N-((1R,2S)-2-{[(3aR,4R,9bR)-4-(methoxymethyl)-2,3,3a,4,5,9b-hexahydro-1H-pyrrolo[3,2-c]quinolin-1-yl]carbonyl}cyclohexyl)benzamide] | < 1 nM |
| O=C(Nc1ccccc1)N[C@@H]1CCCC[C@@H]1C(=O)N1CC[C@@H]2[C@H](c3ccccc3)Nc3ccccc3[C@@H]21 [Example 135, N-phenyl-N′-((1R,2S)-2-{[(3aR,4R,9bR)-4-phenyl-2,3,3a,4,5,9b-hexahydro-1H-pyrrolo[3,2-c]quinolin-1-yl]carbonyl}cyclohexyl)urea] | < 1 nM |
| NC(=O)c1ccc(NC(=O)N[C@@H]2CCCC[C@@H]2C(=O)N2CC[C@@H]3[C@H](c4ccccc4)Nc4ccccc4[C@@H]32)cc1 [Example 160, 4-({[((1R,25)-2-{[(3aR,4R,9bR)-4-Phenyl-2,3,3a,4,5,9b-hexahydro-1H-pyrrolo[3,2-c]quinolin-1-yl]carbonyl}cyclohexyl)amino]carbonyl}amino)benzamide] | < 1 nM |
| O=C(N[C@@H]1CCCC[C@@H]1C(=O)N1CC[C@@H]2[C@H](c3ccc[nH]3)Nc3ccccc3[C@@H]21)c1ccccc1 [Example 64, N-((1R,2S)-2-{[(3aR,4R,9bR)-4-(1H-Pyrrol-2-yl)-2,3,3a,4,5,9b-hexahydro-1H-pyrrolo[3,2-c]quinolin-1-yl]carbonyl}cyclohexyl)benzamide] | < 1 nM |
| COC[C@@H]1Nc2ccccc2[C@H]2[C@@H]1CCN2C(=O)[C@H]1CCCC[C@H]1NC(=O)c1ccc(S(N)(=O)=O)cc1 [Example 245, 4-(Aminosulfonyl)-N-((1R,2S)-2-{[(3aR,4R,9bR)-4-(methoxymethyl)-2,3,3a,4,5,9b-hexahydro-1H-pyrrolo[3,2-c]quinolin-1-yl]carbonyl}cyclohexyl)benzamide] | < 10 nM |
| O=C(N[C@@H]1CCCC[C@@H]1C(=O)N1CC[C@@H]2[C@H](c3ccccc3)Nc3cc(F)ccc3[C@@H]21)c1ccccc1 (relative stereo) [Example 6, N-((1R,2S)-2-{[(3aR*,4R*,9bR*)-7-Fluoro-4-phenyl-2,3,3a,4,5,9b-hexahydro-1H-pyrrolo[3,2-c]quinolin-1-yl]carbonyl}cyclohexyl)benzamide] | < 10 nM |
| Cc1nc2cc(C(=O)N[C@@H]3CCCC[C@@H]3C(=O)N3CC[C@@H]4[C@H](c5ccsc5)Nc5ccccc5[C@@H]43)ccc2[nH]1 [Example 192, 2-Methyl-N-((1R,2S)-2-{[(3aR,4R,9bR)-4-(3-thienyl)-2,3,3a,4,5,9b-hexahydro-1H-pyrrolo[3,2-c]quinolin-1-yl]carbonyl}cyclohexyl)-1H-benzimidazole-5-carboxamide] | < 1 nM |
| COC[C@@H]1Nc2ccccc2[C@H]2[C@@H]1CCN2C(=O)[C@H]1CCCC[C@H]1NC(=O)c1ccc(C#N)c(C)c1 [Example 256, 4-Cyano-N-((1R,2S)-2-{[(3aR,4R,9bR)-4-(methoxymethyl)-2,3,3a,4,5,9b-hexahydro-1H-pyrrolo[3,2-c]quinolin-1-yl]carbonyl}cyclohexyl)-3-methylbenzamide] | < 1 nM |
| COC[C@@H]1Nc2ccccc2[C@H]2[C@@H]1CCN2C(=O)[C@H]1CCCC[C@H]1NC(=O)c1onc2ccccc12 [Example 249, N-((1R,2S)-2-{[(3aR,4R,9bR)-4-(Methoxymethyl)-2,3,3a,4,5,9b-hexahydro-1H-pyrrolo[3,2-c]quinolin-1-yl]carbonyl}cyclohexyl)-2,1-benzisoxazole-3-carboxamide] | < 10 nM |
| COC[C@@H]1Nc2ccccc2[C@H]2[C@@H]1CCN2C(=O)[C@H]1CCCC[C@H]1NC(=O)c1ccc(N2CCOCC2)cc1 [Example 268, N-((1R,2S)-2-{[(3aR,4R,9bR)-4-(Methoxymethyl)-2,3,3a,4,5,9b-hexahydro-1H-pyrrolo[3,2-c]quinolin-1-yl]carbonyl}cyclohexyl)-4-morpholin-4-benzamide] | < 10 nM |
| O=C(N[C@@H]1CCCC[C@@H]1C(=O)N1CC[C@@H]2[C@H](c3ccsc3)Nc3ccccc3[C@@H]21)c1ccccc1 [Example 60, N-((1R,2S)-2-{[(3aR,4R,9bR)-4-(3-Thienyl)-2,3,3a,4,5,9b-hexahydro-1H-pyrrolo[3,2-c]quinolin-1-yl]carbonyl}cyclohexyl)benzamide] | < 1 nM |
| O=C(Nc1ccccc1)N[C@@H]1CCCC[C@@H]1C(=O)N1CCc2c(-c3ccccc3)nc3ccccc3c21 [Example 326, N-Phenyl-N′-{(1R,2S)-2-[(4-phenyl-2,3-dihydro-1H-pyrrolo[3,2-c]quinolin-1-yl)carbonyl]cyclohexyl}urea] | < 10 nM |
| COC[C@@H]1Nc2ccccc2[C@H]2[C@@H]1CCN2C(=O)[C@H]1CCCC[C@H]1NC(=O)c1ccc(-n2cccc2)cc1 [Example 258, N-((1R,2S)-2-{[(3aR,4R,9bR)-4-(Methoxymethyl)-2,3,3a,4,5,9b-hexahydro-1H-pyrrolo[3,2-c]quinolin-1-yl]carbonyl}cyclohexyl)-4-(1H-pyrrol-1-yl)benzamide] | < 1 nM |
| COC[C@@H]1Nc2ccccc2[C@H]2[C@@H]1CCN2C(=O)[C@H]1CCCC[C@H]1NC(=O)c1ccc(NCCO)cc1 [Example 266, 4-[(2-Hydroxyethyl)amino]-N-((1R,2S)-2-{[(3aR,4R,9bR)-4-(methoxymethyl)-2,3,3a,4,5,9b-hexahydro-1H-pyrrolo[3,2-c]quinolin-1-yl]carbonyl}cyclohexyl)benzamide] | < 10 nM |
